According to ChEMBL document CHEMBL1201862, “PubChem BioAssay data set” (2004):
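Growth conditions: 96-well plates. Treatment: test compound, 48 hours, 5 concentrations. Analysis: linear interpolation between bracketing concentrations; unreached endpoints set to highest concentration. Abbreviation: GI50, concentration required for 50% inhibition of growth.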 Calls of active or inactive are those of the source. Rule as the data show it: active = GI50 up to about 1.1 µM and inactive = higher.

Columns and labels:
Experiment in all cases: NCI anticancer screen, dose series, 48 h
T47D = tested on: T47D
SNB-19 = tested on: SNB-19
HCT-116 = tested on: HCT-116
SN12C = tested on: SN12C
Hs-578T = tested on: Hs-578T
U-251 = tested on: U-251
MCF7 = tested on: MCF7
MOLT-4 = tested on: MOLT-4
OVCAR-4 = tested on: OVCAR-4
BT-549 = tested on: BT-549
Malme-3M = tested on: Malme-3M
RPMI-8226 = tested on: RPMI-8226
HL-60 = tested on: HL-60
NCI/ADR-RES = tested on: NCI/ADR-RES
786-0 = tested on: 786-0
HT-29 = tested on: HT-29
CCRF-CEM = tested on: CCRF-CEM
ACHN = tested on: ACHN
DU-145 = tested on: DU-145
COLO 205 = tested on: COLO 205
IGROV-1 = tested on: IGROV-1
OVCAR-8 = tested on: OVCAR-8
SW-620 = tested on: SW-620
HOP-62 = tested on: HOP-62
SK-MEL-5 = tested on: SK-MEL-5
OVCAR-3 = tested on: OVCAR-3
SR = tested on: SR
RXF 393 = tested on: RXF 393
UACC-62 = tested on: UACC-62
NCI-H23 = tested on: NCI-H23
MDA-N = tested on: MDA-N
EKVX = tested on: EKVX
KM12 = tested on: KM12
K562 = tested on: K562
SF-539 = tested on: SF-539
NCI-H226 = tested on: NCI-H226
MDA-MB-435 = tested on: MDA-MB-435
A549 = tested on: A549
MDA-MB-231 = tested on: MDA-MB-231
CAKI-1 = tested on: CAKI-1
LOX IMVI = tested on: LOX IMVI
TK-10 = tested on: TK-10
UACC-257 = tested on: UACC-257
HOP-92 = tested on: HOP-92
OVCAR-5 = tested on: OVCAR-5
PC-3 = tested on: PC-3
HCT-15 = tested on: HCT-15
M14 = tested on: M14
SK-OV-3 = tested on: SK-OV-3
NCI-H460 = tested on: NCI-H460
SF-268 = tested on: SF-268
UO-31 = tested on: UO-31
NCI-H522 = tested on: NCI-H522

In the case of CCCCC1Cc2cc(OC)ccc2-c2nc3cc(OC)ccc3n21.CCCCC1Cc2cc(OC)ccc2-c2nc3ccc(OC)cc3n21 (stereo not drawn), the GI50 (T47D) is reported as 13.1 µM (inactive), the GI50 (SNB-19) is reported as 9.73 µM (inactive) and the GI50 (HCT-116) is reported as 10.9 µM (inactive). For the same compound, the GI50 (SN12C) was 14.7 µM (inactive), the GI50 (Hs-578T) was 12.7 µM (inactive) and the GI50 (U-251) was 15 µM (inactive). The GI50 (MCF7) was 17.2 µM (inactive), the GI50 (MOLT-4) was 10.2 µM (inactive) and the GI50 (OVCAR-4) was 4.7 µM (inactive). The GI50 (BT-549) was 18.8 µM (inactive), the GI50 (Malme-3M) was 16 µM (inactive) and the GI50 (RPMI-8226) was 6.81 µM (inactive). For the same compound, the GI50 (HL-60) was 13.8 µM (inactive), the GI50 (NCI/ADR-RES) was 13.2 µM (inactive) and the GI50 (786-0) was 14.7 µM (inactive). For the same compound, the GI50 (HT-29) was 10.7 µM (inactive), the GI50 (CCRF-CEM) was 13.8 µM (inactive) and the GI50 (ACHN) was 15.2 µM (inactive). The GI50 (DU-145) was 16.4 µM (inactive), the GI50 (COLO 205) was 4.9 µM (inactive) and the GI50 (IGROV-1) was 11.1 µM (inactive). The GI50 (OVCAR-8) was 15.6 µM (inactive), the GI50 (SW-620) was 14.5 µM (inactive) and the GI50 (HOP-62) was 15.7 µM (inactive). The GI50 (SK-MEL-5) was 14.3 µM (inactive), the GI50 (OVCAR-3) was 15 µM (inactive) and the GI50 (SR) was 11.6 µM (inactive). For the same compound, the GI50 (RXF 393) was 17 µM (inactive), the GI50 (UACC-62) was 12.9 µM (inactive) and the GI50 (NCI-H23) was 14.7 µM (inactive). For the same compound, the GI50 (MDA-N) was 14 µM (inactive), the GI50 (EKVX) was 12.6 µM (inactive) and the GI50 (KM12) was 18.7 µM (inactive). The GI50 (K562) was 10.5 µM (inactive), the GI50 (SF-539) was 16.1 µM (inactive) and the GI50 (NCI-H226) was 14 µM (inactive). For the same compound, the GI50 (MDA-MB-435) was 13.2 µM (inactive), the GI50 (A549) was 14 µM (inactive) and the GI50 (MDA-MB-231) was 13.1 µM (inactive). The GI50 (CAKI-1) was 15.6 µM (inactive), the GI50 (LOX IMVI) was 16.4 µM (inactive) and the GI50 (TK-10) was 18.7 µM (inactive). The GI50 (UACC-257) was 14.4 µM (inactive), the GI50 (HOP-92) was 2.06 µM (inactive) and the GI50 (OVCAR-5) was 16.9 µM (inactive). For the same compound, the GI50 (PC-3) was 11.2 µM (inactive), the GI50 (HCT-15) was 3.37 µM and the GI50 (M14) was 15 µM (inactive). The GI50 (SK-OV-3) was 13.5 µM (inactive), the GI50 (NCI-H460) was 15.4 µM (inactive) and the GI50 (SF-268) was 17.6 µM (inactive). The GI50 (UO-31) was 12.3 µM (inactive) and the GI50 (NCI-H522) was 7.67 µM (inactive).
